Measured values reported in patent US20260297060A1, “COMPOUNDS FOR THE DEGRADATION OF MUTANT BRAF” (C4 THERAPEUTICS, INC., priority 2023, published 2026).

Test system: A375 human melanoma xenografts
Assay: Example 9 efficacy study Part II in A375 human melanoma xenografts (tumor volume, T/C, TGI)
Format: in vivo, BALB/c nude mice
Conditions: 10 mg/kg, p.o., BID × 14 days
Protocol: For efficacy study Part II, agents were tested in the A375 human melanoma xenografts model. Compound 133, Compound 144 and Compound 198 were administered to BALB/c nude mice bearing A375 xenografts from day 0 and dosed twice a day (BID) for 14 days. Compound 133, Compound 144 and Compound 198 were dosed at 10 mg/kg via p.o..
The A375 tumor cells were maintained in vitro in DMEM medium supplemented with […] and 1% Penicillin-Streptomycin at 37° C. in an atmosphere of 5% CO2 in air. The tumor cells were routinely subcultured twice weekly. The cells growing in an exponential growth phase were harvested and counted for tumor inoculation.
Each mouse was inoculated subcutaneously at the right flank with A375 cells (5×10^6) in 0.2 mL of PBS supplemented with Matrigel (PBS: Matrigel=1:1) for tumor development. Animals were grouped for the treatment when the average tumor volume reached 243 mm^3 for efficacy study part I and 413 mm^3 for the PK and PD study part I on day 15, and 271 mm^3 for efficacy part II and 443 mm^3 for the PK and PD part II on day 18, and 463 mm^3 for the PK and PD study part III on day 21. The test articles administration and the animal numbers in each group are shown in the above experimental tables.
Prior to the onset of drug treatment, mice were measured for tumor size in two dimensions using a caliper, and the tumor volume (mm^3) was calculated using formula V=0.5 a×b^2 where a and b are the long and short diameters of the tumor in mm, respectively. Mice were randomized into different treatment groups based on the tumor volume.
The major endpoint was to see if the tumor growth could be delayed or mice could be cured. The tumor size was then used for calculations of T/C value. The T/C value (in percent) is an indication of antitumor effectiveness; T and C are the mean volumes of the treated and control groups, respectively on specified day.
TGI was calculated for each group using the formula: TGI (%)=[1−(Ti−T0)/(Ci−C0)]×100; Ti is the average tumor volume of a treatment group on a given day, To is the average tumor volume of the treatment group on the day of treatment start, Ci is the average tumor volume of the vehicle control group on the same day with Ti, and C0 is the average tumor volume of the vehicle group on the day of treatment start.

SMILES: CCN(C)S(=O)(=O)Nc1ccc(F)c(Oc2ccc3ncn(C4CC5(CCN(C6CC7(CCN(c8cc9c(cc8F)c(N8CCC(=O)NC8=O)nn9C)CC7)C6)CC5)C4)c(=O)c3c2)c1C#N (centres unmarked) [Compound 198, 6-[2-cyano-3-[[ethyl(methyl)sulfamoyl]amino]-6-fluoro-phenoxy]-3-[7-[7-[3-(2,4-dioxohexahydropyrimidin-1-yl)-5-fluoro-1-methyl-indazol-6-yl]-7-azaspiro[3.5]nonan-2-yl]-7-azaspiro[3.5]nonan-2-yl]-4-oxo-quinazoline]
- Tumor Volume Trace Over Time (Day 0, Mean ± SEM): 271 mm^3
- Tumor Volume Trace Over Time (Day 4, Mean ± SEM): 192 mm^3
- Tumor Volume Trace Over Time (Day 7, Mean ± SEM): 93 mm^3
- Tumor Volume Trace Over Time (Day 11, Mean ± SEM): 60 mm^3
- Tumor Volume Trace Over Time (Day 14, Mean ± SEM): 58 mm^3
- Tumor Size on PG-D14 (Mean ± SEM): 58 ± 13 mm^3
- TGI (Tumor Growth Inhibition) (PG-D14): 122.45%
- T/C (PG-D14, treated/control average tumor volume): 4.79%
